Results as given in patent US20220313708A1, “COMBINATION PRODUCT CONTAINING LIMONOID COMPOUND AND SGLT-2 INHIBITOR” (ZHEJIANG YANGSHENGTANG INSTITUTE OF NATURAL MEDICATION CO., …, priority 2019, published 2022).

Columns and labels:
Format in all cases: in vivo
[1] = system: mouse pancreatic islet β-cell injury model (STZ); assay: Blood glucose in STZ mouse pancreatic islet β-cell injury model (Example 1, canagliflozin); settings: STZ ICR mice; single agent 0.02 g/kg per day by gavage, two weeks; 1 h after last administration; mean ± SD
Source text: (§1) In this example, a mouse pancreatic islet β-cell injury model was established by modeling ICR mice with streptozotocin (STZ) (Li Nan et al., Protective effect of pine pollen on kidney damage in diabetic nephropathy mice, Science and Technology Review, 2014, 32 (4/5): 95-99), and used to complete the evaluation of hypoglycemic effect in animals (this model could simulate pancreatic islet β-cell damage state of type I and type II diabetics). The limonoid compound was selected from the group consisting of limonin, isolimonic acid, limonin glycoside, and isolimonic acid glycoside, and canagliflozin single administration group, limonin single administration group, isolimonic acid single administration group, limonin glycoside singe administration group, isolimonic acid glycoside singe administration group, and respective combination thereof with canagliflozin administration groups were set.
(§2) Conditions of experimental feeding: ICR mice (20±2 g), aged 6 weeks, purchased from Zhejiang Academy of Medical Sciences, and subjected to experimental feeding after 7 days of preliminary feeding. It should be noted that the conditions for raising the mice were as follows: the temperature was 23±1° C., the humidity was 55±10%, the lights were turned on between 7 am and 7 pm (the lights were turned off at other time), and the mice were allowed to freely take in water and feed. […]

[2] = system: mouse type II diabetes model (db/db mice); assay: Serum leptin by ELISA in db/db mouse type II diabetes model (Example 2); settings: single agent 0.04 g/kg per day by gavage, two weeks, mean ± SD
Source text: (§3) In the present example, db/db mice (line name BKS.Cg-Dock7^m+/+Lepr^db/Nju) were used to perform hypoglycemic efficacy evaluation test of animals (blood glucose level and leptin). The limonoid compound was selected from obacunone, isoobacunoic acid and obacunone glycoside, and dapagliflozin single administration group, obacunone single administration group, isoobacunoic acid single administration group, obacunone glycoside single administered group, and respective combination thereof with dapagliflozin administration groups were set. Conditions for experimental feeding: as type II diabetes model mice, 6-week-old SPF-grade db/db mice were purchased from the Nanjing Model Biology Institute, and subjected to experimental feeding after 7 days of preliminary feeding. It should be noted that the conditions for raising the mice were as follows: the temperature was 23±1° C., the humidity was 55±10%, the lights were turned on between 7 am and 7 pm (the lights were turned off at other time), and the mice were allowed to freely take in water and feed. […] The data were expressed as mean and standard deviation. The data before and after were analyzed by t-test, and P<0.05 was considered statistically significant.

[3] = system: mouse type II diabetes model (db/db mice); assay: Blood glucose in db/db mouse type II diabetes model (Example 2, dapagliflozin); settings: single agent 0.04 g/kg per day by gavage, two weeks, 1 h after last administration, mean ± SD
Source text: as §3

[4] = system: mouse pancreatic islet β-cell injury model (STZ); assay: Blood glucose in STZ mouse pancreatic islet β-cell injury model (Example 3, empagliflozin); settings: STZ ICR mice; single agent 0.1 g/kg per day by gavage, two weeks; 1 h after last administration; mean ± SD
Source text: as §1, with “ichangin, ichangensin, and ichangin” for “limonin, isolimonic acid, limonin”, “empagliflozin” for “isolimonic acid glycoside, and canagliflozin”, “ichangin” for “limonin”, “ichangensi” for “isolimonic acid”, “ichangin” for “limonin glycoside singe administration group, isolimonic acid”, “empagliflozin” for “canagliflozin”
as §2

[5] = system: mouse type II diabetes model (db/db mice); assay: Serum insulin by ELISA in db/db mouse type II diabetes model (Example 4); settings: single agent 0.2 g/kg per day by gavage, two weeks, mean ± SD
Source text: (§4) In the present embodiment, the limonoid compound was selected nomilin, deacetylnomilin, nomilin acid, deacetylnomilin acid glycoside, and ipragliflozin single administration group, nomilin single administration group, deacetylnomilin single administration group, nomilin acid single administered group, deacetylnomilin acid glycoside single administration group, and respective combination thereof with ipragliflozin administration groups were set.
(§5) Conditions for experimental feeding: as type II diabetes model mice, 6-week-old SPF-grade db/db mice were purchased from the Nanjing Model Biology Institute, and subjected to experimental feeding after 7 days of preliminary feeding. It should be noted that the conditions for raising the mice were as follows: the temperature was 23±1° C., the humidity was 55±10%, the lights were turned on between 7 am and 7 pm (the lights were turned off at other time), and the mice were allowed to freely take in water and feed. The experimental feed was mouse growth-stable feed (GB M2118), and the daily feeding and management of the animals were under the responsibility of the animal security department, which provided the animals with sufficient diet and fresh drinking water daily.
(§6) Experimental grouping: male db/db mice (20±2 g) were selected, 18 male mice in each group were tested, and drinking bottles were sterilized weekly. […]

[6] = system: mouse type II diabetes model (db/db mice); assay: Blood glucose in db/db mouse type II diabetes model (Example 4, ipragliflozin); settings: single agent 0.2 g/kg per day by gavage, two weeks, 1 h after last administration, mean ± SD
Source text: as §4, §5, §6

**Q.** Which Blood glucose value [1] does the source give for `Cc1ccc([C@@H]2O[C@H](CO)[C@@H](O)[C@H](O)[C@H]2O)cc1Cc1ccc(-c2ccc(F)cc2)s1` [Canagliflozin, canagliflozin] here?
**A.** 19.1 ± 4.1 mmol/L

**Q.** How did the Leptin [2] turn out when `CCOc1ccc(Cc2cc([C@@H]3O[C@H](CO)[C@@H](O)[C@H](O)[C@H]3O)ccc2Cl)cc1` [Dapagliflozin, dapagliflozin] was run?
**A.** 25.34 ± 5.26 pg/mL

**Q.** And the Blood glucose value [3]?
**A.** 12.0 ± 2.9 mmol/L

**Q.** For `OC[C@H]1O[C@@H](c2ccc(Cl)c(Cc3ccc(O[C@H]4CCOC4)cc3)c2)[C@H](O)[C@@H](O)[C@@H]1O` [Empagliflozin, empagliflozin], which Blood glucose value [4] is on record?
**A.** 13.9 ± 2.0 mmol/L

**Q.** Which results are given for `OC[C@H]1O[C@@H](c2ccc(F)c(Cc3cc4ccccc4s3)c2)[C@H](O)[C@@H](O)[C@@H]1O` [Ipragliflozin, ipragliflozin]?
**A.** Insulin [5]: 7.61 ± 1.03 pg/mL; Blood glucose value [6]: 10.3 ± 2.3 mmol/L
